# Test results published in paper PMC3914206.
# Biological target: T1, panel of 442 kinases (Homo sapiens, UniProt P36888, D835H)
# T1 construct: purchased KINOMEscan
# T1 sequence (P36888 27-993 D835H): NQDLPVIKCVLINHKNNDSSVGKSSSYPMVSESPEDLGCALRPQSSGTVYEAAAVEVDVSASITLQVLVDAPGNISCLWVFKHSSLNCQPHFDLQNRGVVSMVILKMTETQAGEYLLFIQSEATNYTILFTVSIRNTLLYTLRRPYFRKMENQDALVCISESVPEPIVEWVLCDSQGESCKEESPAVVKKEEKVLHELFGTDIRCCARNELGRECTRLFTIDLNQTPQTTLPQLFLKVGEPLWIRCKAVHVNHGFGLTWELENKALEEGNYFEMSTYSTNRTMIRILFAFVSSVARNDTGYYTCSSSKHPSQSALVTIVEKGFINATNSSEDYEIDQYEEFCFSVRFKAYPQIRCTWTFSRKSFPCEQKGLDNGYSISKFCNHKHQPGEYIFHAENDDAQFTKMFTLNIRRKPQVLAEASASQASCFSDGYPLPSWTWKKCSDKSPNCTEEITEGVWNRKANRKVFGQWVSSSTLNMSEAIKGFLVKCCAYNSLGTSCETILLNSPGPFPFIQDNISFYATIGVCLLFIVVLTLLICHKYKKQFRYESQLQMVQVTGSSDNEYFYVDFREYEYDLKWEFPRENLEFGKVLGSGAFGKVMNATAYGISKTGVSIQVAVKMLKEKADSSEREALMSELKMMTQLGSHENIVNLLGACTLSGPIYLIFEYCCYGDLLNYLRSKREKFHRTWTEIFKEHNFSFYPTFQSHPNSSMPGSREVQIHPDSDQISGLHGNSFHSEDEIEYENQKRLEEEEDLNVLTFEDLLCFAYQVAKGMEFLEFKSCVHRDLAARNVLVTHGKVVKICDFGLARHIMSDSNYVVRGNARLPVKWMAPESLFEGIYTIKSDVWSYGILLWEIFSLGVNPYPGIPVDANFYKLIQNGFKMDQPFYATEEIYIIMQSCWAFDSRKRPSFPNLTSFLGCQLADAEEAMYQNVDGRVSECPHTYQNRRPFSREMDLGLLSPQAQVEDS
# Format: binding
# Conditions: Compound Concentration 10 µM
# Excerpt: We assessed the selectivity of members of this scaffold using the KINOMEscan methodology across a near comprehensive panel of 442 kinases [[18,27]].
row,Compound,KINOMEscan: FLT3(D835H)
1,COc1cc(C(=O)N2CCC(N3CCN(C)CC3)CC2)ccc1Nc1ncc2c(n1)N(C)c1ccccc1C(=O)N2C [15 (LRRK2-IN-1)],100
2,"COc1cc(C(=O)N2CCC(N3CCN(C)CC3)CC2)ccc1Nc1ncc2c(n1)N(C1CCCC1)c1ccccc1C(=O)N2C [Compound 25, 11-cyclopentyl-2-((2-methoxy-4-(4-(4-methylpiperazin-1-yl)piperidine-1-carbonyl)phenyl)amino)-5-methyl-5H-benzo[e]pyrimido[5,4-b][1,4]diazepin-6(11H)-one]",100
3,CCOc1cc(C(=O)N2CCC(N3CCN(C)CC3)CC2)ccc1Nc1ncc2c(n1)N(C1CCCC1)c1ccccc1C(=O)N2C [Compound 26],100
